Source: publication PMC7904550, “Application of grouping and read-across for the evaluation of parabens of different chain lengths with a particular focus on endocrine properties” (Archives of Toxicology, 2021)

How the values were obtained:
Wistar rats [1] = assay: 90-day repeated dose oral toxicity study (OECD TG 408); type: in vivo, rat; conditions: for NOAEL, 90-day repeated-dose toxicity: OECD 408 v 2018, oral gavage
Source text: (§1) Healthy and specific pathogen-free male and female (non-pregnant and nulliparous) Wistar Crl: WI(Han) rats were obtained from Charles River Laboratories (Germany). […] Upon arrival at BSL BIOSERVICE, the animals underwent an acclimatisation period of at least 5 days, and they were approximately 15–16 weeks old at the onset of the treatment period.

mammalian cells = conditions: cited from earlier work
bacteria = conditions: cited from earlier work
Wistar rats [2] = assay: Extended one-generation reproductive toxicity study (OECD TG 443); type: in vivo, rat; conditions: for NOAEL, EOGRTS: developmental and reproductive toxicity: OECD 443 v 2018, oral gavage
Source text: as §1

in vivo = conditions: for concentration at 1 h / Tmax / AUC(0-t) / Cmax: Wistar, rat, serum; for concentration at 1 h: oral; for Tmax / AUC(0-t) / Cmax: po; for AUC(0-t) / Cmax / AUC0-1 h/AUC0–t / C1h/Cmax / Clast / tlast: parent compound
Outline: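 Test item given by oral gavage at 500 and 1000 mg/kg bw to 10 males and 10 females per dose group, following OECD TG 417. Serum parent parabens and the metabolite p-hydroxybenzoic acid were measured by […] (LOQ 10 ng/mL parabens, 130 ng/mL p-hydroxybenzoic acid). Faeces and urine were not analysed.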

rats = conditions: read-across from MP; ref ECHA dissemination portal; cited from earlier work

## CCCOC(=O)c1ccc(O)cc1 [Propyl paraben, Propyl 4-hydroxybenzoate]
Wistar rats [1]
  NOAEL, 90-day repeated-dose toxicity: NOAEL: 1000 (OECD 408; v 2018) mg/kg body weight/day
Wistar rats [1]; listed as propyl paraben
  NOAEL, 90-day repeated-dose toxicity: 1000 mg/kg body weight/day
Wistar rats [1]; P0
  Accessory sex organs HP: NAE / NAE
  Adrenals HP: NAE / NAE
  Adrenals weight: NAE / NAE
  Brain weight: NAE / NAE
  Cervix HP: NAE / NAE
  Coagulating gland HP: NAE / NAE
  Coagulating gland weight: NAE / NAE
  Epididymis HP: NAE / NAE
  Epididymis weight: NAE / NAE
  Liver weight: NAE / NAE
  Mammary gland HP; females: NAE / NAE
  Mammary gland HP; males: NAE / NAE
  Oestrus cyclicity: NAE / NAE
  Ovary HP: NAE / NAE
  Ovary weight: NAE / NAE
  Oviduct HP: NAE / NAE
  Pituitary HP: NAE / NAE
  Pituitary weight: NAE / NAE
  Prostate HP: NAE / NAE
  Prostate weight: NAE / NAE
  Seminal vesicles HP: NAE / NAE
  Seminal vesicles weight: NAE / NAE
  Testis HP: NAE / NAE
  Testis weight: NAE / NAE
  Thyroid HP: NAE / NAE
  Thyroid stimulating hormone level: NAE / NAE
  Thyroid weight: NAE / NAE
  Triiodothyronine / thyroxine level: NAE / NAE
  Uterus HP (with cervix): NAE / NAE
  Uterus weight (with cervix): NAE / NAE
  Vagina HP: NAE / NAE
  Vaginal smears: NAE / NAE
Wistar rats [1]; sub-chronic (90-day) oral application
  Signs of systemic toxicity: did not induce any signs of systemic toxicity
Mammalian cells
  Mutagenicity in mammalian cells classification: Not mutagenic [c] (OECD 476; 2012)
bacteria
  Mutagenicity in bacteria classification: Not mutagenic [c] (OECD 471; 2018)
Wistar rats [2]; DIT cohort
  Developmental immunotoxicity (DIT): did not exhibit
Wistar rats [2]; DNT cohort
  Developmental neurotoxicity (DNT): did not exhibit DNT
Wistar rats [2]
  NOAEL, EOGRTS: developmental and reproductive toxicity: NOAEL: 1000 (OECD 443; v 2018) mg/kg body weight/day
Wistar rats [2]; listed as propyl paraben
  NOAEL, EOGRTS: developmental and reproductive toxicity: 1000 mg/kg body weight/day
Wistar rats [2]; P0, F1, (F2)
  Accessory sex organs HP: NAE / NAE
  Adrenals HP: NAE / NAE
  Adrenals weight: NAE / NAE
  Age at balano-preputial separation: NAE / NAE
  Age at vaginal opening: NAE / NAE
  Anogenital distance: NAE / NAE
  Auditory startle: NAE / NAE
  Brain HP: NAE / NAE
  Brain morphometric evaluation: NAE / NAE
  Brain weight: NAE / NAE
  Cervix HP: NAE / NAE
  Coagulating gland HP: NAE / NAE
  Coagulating gland weight: NAE / NAE
  Colloid area (thyroid HP): NAE / NAE
  Dystocia: NAE / NAE
  Epididymis HP: NAE / NAE
  Epididymis weight: NAE / NAE
  Fertility: NAE / NAE
  Foetal development: NAE / NAE
  Functional observation battery: NAE [h] / NAE
  Gestation length: NAE / NAE
  Litter size: NAE / NAE
  Litter viability: NAE / NAE
  Liver weight: NAE / NAE
  Mammary gland HP; females: NAE / NAE
  Mammary gland HP; males: NAE / NAE
  Motor activity: NAE / NAE
  Nipple development: NAE / NAE
  No. of implantations, corpora lutea: NAE / NAE
  No. of live births: NAE / NAE
  No. of ovarian follicles: NAE / NAE
  Oestrus cyclicity: NAE / NAE
  Offspring: learning & memory: NAE / NAE
  Ovary HP: NAE / NAE
  Ovary weight: NAE / NAE
  Oviduct HP: NAE / NAE
  Pituitary HP: NAE / NAE
  Pituitary weight: NAE / NAE
  Postimplantation loss: NAE / NAE
  Presence of anomalies (external, visceral, skeletal): NAE / NAE
  Prostate HP: NAE / NAE
  Prostate weight: NAE / NAE
  Pup development: NAE / NAE
  Reproduction: NAE / NAE
  Seminal vesicles HP: NAE / NAE
  Seminal vesicles weight: NAE / NAE
  Sperm morphology: NAE / NAE
  Sperm motility: NAE / NAE
  Sperm numbers: NAE / NAE
  Testis HP: NAE / NAE
  Testis weight: NAE / NAE
  Thyroid HP: NAE / NAE
  Thyroid stimulating hormone level: NAE / NAE
  Thyroid weight: NAE / NAE
  Time to mating: NAE / NAE
  Triiodothyronine / thyroxine level: NAE / NAE
  Uterus HP (with cervix): NAE / NAE
  Uterus weight (with cervix): NAE / NAE
  Vagina HP: NAE / NAE
  Vaginal smears: NAE / NAE
Wistar rats [2]; all dose groups, within historical control, assessed as not toxicologically relevant
  Anogenital distance, female pups PND 0: minimal lower absolute and relative anogenital distance
Wistar rats [2]; parental animals, assessed as not toxicologically relevant
  Clinical biochemistry parameters: few marginal but statistically significant differences
Wistar rats [2]; parental females (and F1 males) of high dose group, assessed as not toxicologically relevant
  Thyroid stimulating hormone: slight but statistically significantly higher group mean thyroid stimulating hormone values
Wistar rats [2]; up to 1000 mg/kg bw/day
  Alterations of the parameters addressed in OECD TG 443: no toxicologically relevant alterations
Wistar rats [2]; without toxicological relevance
  Local reactions after gavage: Transient increased salivation
In vivo; female, 500 mg/kg
  concentration at 1 h: 68 ng/mL
  Tmax: 15 min
  Cmax: 1390 ng/mL
In vivo; female, 1000 mg/kg
  concentration at 1 h: 20.2 ng/mL
  Tmax: 10.2 min
  Cmax: 940 ng/mL
In vivo; female, 500 mg/kg, AUC0-1 h
  AUC(0-t): 291 ng·h/mL
In vivo; female, 500 mg/kg, AUC0–t
  AUC(0-t): 1120 ng·h/mL
In vivo; female, 1000 mg/kg, AUC0-1 h
  AUC(0-t): 156 ng·h/mL
In vivo; female, 1000 mg/kg, AUC0–t
  AUC(0-t): 317 ng·h/mL
In vivo; male, 500 mg/kg
  concentration at 1 h: 23 ng/mL
  Tmax: 10.2 min
  Cmax: 345 ng/mL
In vivo; male, 1000 mg/kg
  concentration at 1 h: 62.3 ng/mL
  Tmax: 10.2 min
  Cmax: 735 ng/mL
In vivo; male, 500 mg/kg, AUC0-1 h
  AUC(0-t): 94.9 ng·h/mL
In vivo; male, 500 mg/kg, AUC0–t
  AUC(0-t): 150 ng·h/mL
In vivo; male, 1000 mg/kg, AUC0-1 h
  AUC(0-t): 175 ng·h/mL
In vivo; male, 1000 mg/kg, AUC0–t
  AUC(0-t): 380 ng·h/mL
In vivo; 500 mg/kg, female
  AUC0-1 h/AUC0–t: 26%
  C1h/Cmax: 4.9%
  Clast: 136 ng/mL
  tlast: 8.0 h
In vivo; 500 mg/kg, male
  AUC0-1 h/AUC0–t: 63%
  C1h/Cmax: 6.7%
  Clast: 13.6 ng/mL
  tlast: 4.0 h
In vivo; 1000 mg/kg, female
  AUC0-1 h/AUC0–t: 49%
  C1h/Cmax: 2.1%
  Clast: 11.6 ng/mL
  tlast: 8.0 h
In vivo; 1000 mg/kg, male
  AUC0-1 h/AUC0–t: 46%
  C1h/Cmax: 8.5%
  Clast: 14.3 ng/mL
  tlast: 8.0 h
rats
  Genetic toxicity in vivo (rats) classification: Not clastogenic (read-across from MP)
